Data reported in PMC4537502 (Psychopharmacology, 2015).

Columns and labels:
D2R = conditions: read-out: Kd in rat brain tissue; ref Köhler et al. [1985]; cited from earlier work
[1] = target: dopamine D2 receptor (D2R) (Rattus norvegicus, UniProt P61169); test: in vivo; conditions: rat, baseline, mean ± S.D.
Description: Because of limited availability of the test drug, the 60 mg/kg dose group was scanned only with ^11C-raclopride.
After drug administration and about 20 min before each microPET scan, animals were anesthetized with isoflurane (Pharmachemie BV, Haarlem, Netherlands). […] Both tracers were injected as a slow bolus (1 ml of saline-diluted tracer solution infused during a period of 1 min), using a Harvard-style injection pump.
Two rats were scanned in each scan session. They were positioned on heating mats in a microPET Focus 220 system, in transaxial position above each other with their brains in the field of view. Body temperature of the animals was kept close to normal with electronic temperature controllers. Heart rate and oxygen level of the blood during the scan were monitored using pulse oximeters (PulseSense, Nonin). […] A list mode protocol was used with a 76-min acquisition time.
Image reconstruction was performed using microPET Manager 2.3.3.6 (Siemens). The PET data were split according to position along the y-axis, so that a separate data set was acquired for each animal. The list mode data of the emission scans were reframed in a dynamic sequence of 6 × 10, 4 × 30, 2 × 60, 1 × 120, 1 × 180, 4 × 300, and 3 × 600 s (with an additional 960-s frame for the rat that was injected first). The data were reconstructed per time frame employing an iterative reconstruction algorithm (OSEM2D with Fourier rebinning, 4 iterations, and 16 subsets). […] Data sets were corrected for decay, random coincidences, scatter, and attenuation.
In ^11C-raclopride scans of the brain, three-dimensional regions of interest (ROIs) were manually drawn over the left and right striatum and cerebellum, using the program ASIPro 6.3.3.0 (Siemens). […] Time-activity curves (TACs) were generated for these regions (Fig. 1). The results are expressed as dimensionless standardized uptake values (PET-SUV), defined as [(tissue activity concentration (MBq/g) × body weight (g) / injected dose (MBq)]. Brain tissue was assumed to have a specific gravity of 1 g/ml.
Plateau values for the striatum-to-cerebellum ratio were derived from this curve fit.

Chain of dopamine D2 receptor (D2R) (P61169 whole entry): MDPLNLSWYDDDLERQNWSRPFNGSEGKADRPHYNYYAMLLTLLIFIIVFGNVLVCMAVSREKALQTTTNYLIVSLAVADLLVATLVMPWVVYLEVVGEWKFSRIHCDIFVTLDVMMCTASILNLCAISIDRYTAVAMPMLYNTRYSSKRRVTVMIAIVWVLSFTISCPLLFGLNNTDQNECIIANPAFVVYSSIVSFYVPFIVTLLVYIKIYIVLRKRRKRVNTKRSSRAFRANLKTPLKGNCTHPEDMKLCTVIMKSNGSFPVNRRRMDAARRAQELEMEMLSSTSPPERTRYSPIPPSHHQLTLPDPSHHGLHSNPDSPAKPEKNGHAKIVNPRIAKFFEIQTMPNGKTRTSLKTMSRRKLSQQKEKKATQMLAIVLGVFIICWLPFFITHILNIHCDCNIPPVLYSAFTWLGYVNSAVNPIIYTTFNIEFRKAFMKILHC

| SMILES | Kd (D2R) [nM] | Target binding of the radioligand (striatum-to-cerebellum ratio at plateau minus one) [1] |
| --- | --- | --- |
| CCN1CCC[C@H]1CNC(=O)c1c(O)c(Cl)cc(Cl)c1OC (racemic) [^11C-raclopride] | 1.2 |  |
| CCN1CCC[C@H]1CNC(=O)c1c(O)c(Cl)cc(Cl)c1O[11CH3] (racemic) [^11C-raclopride] |  | 2.85 ± 0.48 |
